Assay results from ChEMBL document CHEMBL3217594, “Structureactivity relationships of methyl-lysine reader antagonists” (Medchemcomm, 2012).
Calls of active or inactive are those of the source. The rule behind the calls is not given here.

Experiments:
[1] = target: T1, Lethal(3)malignant brain tumor-like protein 4 (Homo sapiens, UniProt Q8NA19); assay: Antagonist activity at L3MBTL4 (unknown origin) assessed as inhibition of L3MBTL4/biotinylated H2AK36Me1 peptide interaction after 30 mins by AlphaScreen assay
T1 sequence (Q8NA19 whole entry): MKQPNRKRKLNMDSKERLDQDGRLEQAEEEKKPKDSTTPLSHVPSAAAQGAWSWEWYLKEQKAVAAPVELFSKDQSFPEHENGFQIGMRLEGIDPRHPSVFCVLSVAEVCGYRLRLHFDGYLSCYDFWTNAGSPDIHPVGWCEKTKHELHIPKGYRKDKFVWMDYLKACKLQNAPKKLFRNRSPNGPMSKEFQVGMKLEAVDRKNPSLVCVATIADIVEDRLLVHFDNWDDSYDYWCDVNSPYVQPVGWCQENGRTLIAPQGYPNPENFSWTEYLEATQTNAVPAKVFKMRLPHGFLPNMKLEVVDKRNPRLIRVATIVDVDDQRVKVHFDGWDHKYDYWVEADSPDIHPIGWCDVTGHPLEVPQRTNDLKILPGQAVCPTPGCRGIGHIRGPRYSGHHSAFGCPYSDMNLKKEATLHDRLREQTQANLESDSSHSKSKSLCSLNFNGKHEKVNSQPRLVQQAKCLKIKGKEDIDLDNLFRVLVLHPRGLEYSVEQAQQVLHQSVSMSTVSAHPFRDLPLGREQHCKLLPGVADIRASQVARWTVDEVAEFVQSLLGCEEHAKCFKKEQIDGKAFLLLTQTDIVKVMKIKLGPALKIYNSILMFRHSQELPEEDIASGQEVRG

[2] = target: T2, Lethal(3)malignant brain tumor-like protein 1 (Homo sapiens) (UniProt Q9Y468); details: Plus RIL, 30 uM
T2 sequence (whole entry): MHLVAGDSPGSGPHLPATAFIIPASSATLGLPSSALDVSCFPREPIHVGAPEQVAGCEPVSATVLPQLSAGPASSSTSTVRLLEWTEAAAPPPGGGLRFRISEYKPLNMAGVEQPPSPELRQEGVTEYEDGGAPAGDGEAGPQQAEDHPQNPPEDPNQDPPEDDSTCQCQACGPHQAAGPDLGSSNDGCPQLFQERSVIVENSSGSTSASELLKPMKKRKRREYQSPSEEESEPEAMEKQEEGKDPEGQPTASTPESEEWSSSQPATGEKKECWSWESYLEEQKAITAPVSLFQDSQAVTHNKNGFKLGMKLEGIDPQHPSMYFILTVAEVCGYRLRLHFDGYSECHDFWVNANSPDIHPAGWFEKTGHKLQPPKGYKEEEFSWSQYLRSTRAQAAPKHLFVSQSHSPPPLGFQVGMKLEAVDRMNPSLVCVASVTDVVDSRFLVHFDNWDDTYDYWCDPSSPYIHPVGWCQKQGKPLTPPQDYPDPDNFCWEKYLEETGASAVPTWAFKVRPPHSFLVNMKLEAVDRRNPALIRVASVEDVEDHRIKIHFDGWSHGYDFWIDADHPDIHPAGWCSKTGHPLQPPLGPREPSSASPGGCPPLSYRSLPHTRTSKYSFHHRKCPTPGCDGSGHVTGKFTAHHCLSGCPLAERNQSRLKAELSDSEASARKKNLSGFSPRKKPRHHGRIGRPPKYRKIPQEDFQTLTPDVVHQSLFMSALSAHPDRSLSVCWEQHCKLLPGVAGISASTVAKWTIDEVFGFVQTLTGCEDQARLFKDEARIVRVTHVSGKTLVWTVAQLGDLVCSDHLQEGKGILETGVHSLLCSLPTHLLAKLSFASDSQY

[3] = target: T3, Chromobox protein homolog 7 (Homo sapiens) (UniProt O95931); assay: Antagonist activity at Flag-tagged CBX7 (unknown origin) assessed as inhibition of CBX7/biotinylated H3K9Me3 peptide interaction at 30 uM after 30 mins by AlphaScreen assay
T3 sequence (whole entry): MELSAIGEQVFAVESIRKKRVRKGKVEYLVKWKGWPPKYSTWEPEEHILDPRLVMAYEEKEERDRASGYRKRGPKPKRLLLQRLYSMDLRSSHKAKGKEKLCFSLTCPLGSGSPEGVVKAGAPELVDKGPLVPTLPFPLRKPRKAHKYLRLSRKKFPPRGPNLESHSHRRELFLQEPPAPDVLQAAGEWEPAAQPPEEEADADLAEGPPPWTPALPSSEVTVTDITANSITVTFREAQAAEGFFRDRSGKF

[4] = target: T4, Lethal(3)malignant brain tumor-like protein 3 (Homo sapiens, UniProt Q96JM7); assay: Antagonist activity at His-tagged L3MBTL3 (unknown origin) assessed as inhibition of L3MBTL3/biotinylated H4K20Me2 peptide interaction after 30 mins by AlphaScreen assay
T4 sequence (Q96JM7 whole entry): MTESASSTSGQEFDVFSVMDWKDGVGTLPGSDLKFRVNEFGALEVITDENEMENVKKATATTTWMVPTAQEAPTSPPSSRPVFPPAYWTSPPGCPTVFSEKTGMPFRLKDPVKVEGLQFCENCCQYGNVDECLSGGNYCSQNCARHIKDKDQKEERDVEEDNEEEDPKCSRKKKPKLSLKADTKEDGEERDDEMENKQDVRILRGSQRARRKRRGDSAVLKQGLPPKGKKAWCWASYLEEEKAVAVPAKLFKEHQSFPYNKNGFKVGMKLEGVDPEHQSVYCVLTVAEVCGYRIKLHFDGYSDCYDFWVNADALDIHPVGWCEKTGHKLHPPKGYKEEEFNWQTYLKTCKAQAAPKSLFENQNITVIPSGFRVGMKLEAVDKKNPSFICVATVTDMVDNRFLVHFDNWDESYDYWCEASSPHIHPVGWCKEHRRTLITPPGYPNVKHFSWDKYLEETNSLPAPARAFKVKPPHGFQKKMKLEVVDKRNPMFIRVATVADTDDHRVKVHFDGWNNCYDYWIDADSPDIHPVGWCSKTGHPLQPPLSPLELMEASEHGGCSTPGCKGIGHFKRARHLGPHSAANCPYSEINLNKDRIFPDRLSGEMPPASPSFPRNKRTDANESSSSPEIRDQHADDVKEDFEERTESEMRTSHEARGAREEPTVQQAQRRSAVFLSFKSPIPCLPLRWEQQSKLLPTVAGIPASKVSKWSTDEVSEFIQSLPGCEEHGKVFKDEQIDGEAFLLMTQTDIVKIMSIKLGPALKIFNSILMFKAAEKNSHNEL

Structure (SMILES)	inhibition [3]	IC50 [1] [µM]	inhibition [2]	IC50 [4] [µM]
Brc1cccc(CN2CCC(N3CCCC3)CC2)c1	inactive	> 30	20%	13.3
CN(C)C1CCN(C(=O)c2cccc(Br)c2)CC1	inactive	> 30	5%	> 30
O=S(=O)(c1cccc(Br)c1)N1CCC(N2CCCC2)CC1	inactive	> 30	48%	3.7
C[N+]1(C2CCN(C(=O)c3cccc(Br)c3)CC2)CCCC1	17%	> 30	inactive	> 30
CNC1CCN(C(=O)c2cccc(Br)c2)CC1	3%	> 30	inactive	> 30
O=C(c1cccc(Br)c1)N1CCN(C2CCCC2)CC1	1%	> 30	inactive	> 30
CC(c1cccc(Br)c1)N1CCC(N2CCCC2)CC1 (racemic)	inactive	> 30	25%	16
CC1CCCN1C1CCN(C(=O)c2cccc(Br)c2)CC1 (stereo not drawn)	inactive	> 30	6%	> 30
O=C(c1cccc(Br)c1)N1CCC(C2CCCN2)CC1 (stereo not drawn)	inactive	> 30	6%	–
CN1CCCC1C1CCN(C(=O)c2cccc(Br)c2)CC1 (stereo not drawn)	inactive	> 30	3%	21

Second part, led by results:

inhibition [3]	Structure (SMILES)	IC50 [1] [µM]	inhibition [2]	IC50 [4] [µM]
4%	O=C(c1cccc(Br)c1)N1CCC(N2CCCC2)C1 (stereo not drawn)	> 30	18%	> 30
3%	O=C(c1cccc(Br)c1)N1CCC(N2CCCCC2)CC1	> 30	5%	> 30
4%	O=C(O)c1cccc(C(=O)N2CCC(N3CCCC3)CC2)c1	> 30	31%	6.9
11%	O=C(c1cccc(Br)c1)N1CCC(N2CCCC2)CC1	15.6	–	3.2
11%	O=C(c1cccc(Br)c1)N1CCC(N2CCC2)CC1	> 30	32%	23.8
